Results as given in patent US7816353B2 (Exelixis, Inc., priority 2003, dated 2010).

Key:
Assay type in all cases: biochemical
[1] = molecular target: T1, p70S6K (Homo sapiens, UniProt P23443, T412E); experiment: p70S6 Kinase Assay (Luciferase-Coupled Chemiluminescent Kinase assay, LCCA); conditions: human p70S6 kinase domain residues 1-421, T412E; 5 μM ATP; read-out: p70S6K IC50
T1 construct: human p70S6 kinase domain residues 1-421, containing a T412E mutation; made in house
Summary of the method: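 Luciferase-coupled chemiluminescence measured percent ATP remaining after the 2 h kinase reaction at ambient temperature, with ATP near the kinase's KM. Ten inhibitor concentrations were tested. IC50 was obtained from a Hill-equation fit.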

[2] = molecular target: T2, PDK1 (Homo sapiens, UniProt O15530); experiment: PDK1 Kinase Assay (Luciferase-Coupled Chemiluminescent Kinase assay, LCCA); conditions: human PDK1 kinase domain residues M51-T359; 0.5 μM ATP; read-out: PDK-1 IC50
T2 construct: human PDK1 kinase domain residues M51-T359; made in house
T2 sequence (O15530 51-359): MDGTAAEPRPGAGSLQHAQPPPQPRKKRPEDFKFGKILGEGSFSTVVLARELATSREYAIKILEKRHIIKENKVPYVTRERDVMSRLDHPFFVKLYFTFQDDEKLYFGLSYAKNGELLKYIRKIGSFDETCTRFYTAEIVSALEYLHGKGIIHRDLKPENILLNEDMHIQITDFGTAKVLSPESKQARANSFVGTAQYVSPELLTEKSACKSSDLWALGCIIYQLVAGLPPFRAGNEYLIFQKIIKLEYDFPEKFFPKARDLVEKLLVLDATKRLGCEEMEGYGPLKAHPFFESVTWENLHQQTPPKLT
Procedure: (§1) Kinase activity and compound inhibition are investigated using one or more of the three assay formats described below. The ATP concentrations for each assay are selected to be close to the Michaelis-Menten constant (KM) for each individual kinase. Dose-response experiments are performed at 10 different inhibitor concentrations in a 384-well plate format. The data are fitted to four-parameter equation (2) below; where Y is the observed signal, X is the inhibitor concentration, Min is the background signal in the absence of enzyme (0% enzyme activity), Max is the signal in the absence of inhibitor (100% enzyme activity), IC50 is the inhibitor concentration at 50% enzyme inhibition and H represents the empirical Hill's slope to measure the cooperativity. Typically H is close to unity. Y=Min+(Max−Min)/(1+(X/IC50)^H) Equation (2) p70S6 Kinase Assay
Biochemical activity of PDK1 kinase was assessed using a Luciferase-Coupled Chemiluminescent Kinase assay (LCCA) format. Kinase activity was measured as the percent ATP remaining following the kinase reaction. Remaining ATP was detected by luciferase-luciferin-coupled chemiluminescence. Specifically, the reaction was initiated by mixing test compounds, 0.5 μM ATP, 0.6 μM PDKtide peptide and 6 nM PDK1 (baculovirus expressed human PDK1 kinase domain residues M51-T359) in a 20 uL assay buffer (20 mM Hepes pH 7.5, 1 mM CaCl2, 0.03% CHAPS, 2 mM DTT). The mixture is incubated at ambient temperature for 3 hours after which 20 μL luciferase-luciferin mix is added and the chemiluminescent signal read using a Wallac Victor2 reader. The luciferase-luciferin mix consists of 50 mM HEPES, pH 7.8, 8.5 μg/mL oxalic acid (pH 7.8), 5 (or 50) mM DTT, 0.4% Triton X-100, 0.25 mg/mL coenzyme A, 63 uM AMP, 28 μg/mL luciferin and 40,000 units/mL luciferase.

[3] = molecular target: T3, Akt1 (Homo sapiens, UniProt P31749); experiment: Akt1 Kinase Assay (Luciferase-Coupled Chemiluminescent Kinase assay, LCCA); conditions: human Akt1 kinase domain residues R144-A480, activated with PDK1; 1 μM ATP; read-out: Akt-1 IC50
T3 construct: made in house
T3 sequence (P31749 144-480): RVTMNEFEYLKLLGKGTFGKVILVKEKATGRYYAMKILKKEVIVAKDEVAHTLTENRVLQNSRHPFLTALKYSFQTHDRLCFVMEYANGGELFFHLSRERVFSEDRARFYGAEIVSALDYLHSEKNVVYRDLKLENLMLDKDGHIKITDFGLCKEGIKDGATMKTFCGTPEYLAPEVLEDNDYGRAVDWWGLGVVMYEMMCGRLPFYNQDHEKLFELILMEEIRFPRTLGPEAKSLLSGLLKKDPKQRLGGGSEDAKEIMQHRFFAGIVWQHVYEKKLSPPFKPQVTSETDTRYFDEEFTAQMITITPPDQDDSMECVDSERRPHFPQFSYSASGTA
Procedure: as §1
Biochemical activity of Akt1 kinase was assessed using a Luciferase-Coupled Chemiluminescent Kinase assay (LCCA) format. Kinase activity was measured as the percent ATP remaining following the kinase reaction. Remaining ATP was detected by luciferase-luciferin-coupled chemiluminescence. Specifically, the reaction was initiated by mixing test compounds, 1 μM ATP, 5 μM crosstide peptide and 1.3 nM Akt1 (baculovirus expressed human Akt1 kinase domain residues R144-A480, activated with PDK1) in a 20 uL assay buffer (20 mM Tris-HCL pH 7.5, 10 mM MgCl2, 0.01% Triton X-100, 1 mM DTT, 3 mM MnCl2). The mixture is incubated at ambient temperature for 3 hours after which 20 μL luciferase-luciferin mix is added and the chemiluminescent signal read using a Wallac Victor2 reader. The luciferase-luciferin mix consists of 50 mM HEPES, pH 7.8, 8.5 μg/mL oxalic acid (pH 7.8), 5 (or 50) mM DTT, 0.4% Triton X-100, 0.25 mg/mL coenzyme A, 63 uM AMP, 28 μg/mL luciferin and 40,000 units/mL luciferase.

T1 sequence (P23443 1-421 T412E): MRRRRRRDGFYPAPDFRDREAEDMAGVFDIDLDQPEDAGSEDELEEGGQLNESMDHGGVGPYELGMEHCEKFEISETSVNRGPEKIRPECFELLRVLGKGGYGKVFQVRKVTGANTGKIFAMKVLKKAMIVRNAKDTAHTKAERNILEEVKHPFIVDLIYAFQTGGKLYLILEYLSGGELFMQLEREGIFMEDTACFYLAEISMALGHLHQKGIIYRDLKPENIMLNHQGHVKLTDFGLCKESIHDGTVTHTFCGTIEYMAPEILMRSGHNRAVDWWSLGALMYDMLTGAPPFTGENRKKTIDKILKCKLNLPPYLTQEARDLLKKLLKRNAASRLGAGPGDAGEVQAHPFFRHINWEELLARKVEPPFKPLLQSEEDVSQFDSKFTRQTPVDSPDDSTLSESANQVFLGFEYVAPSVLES

| IC50 [1] [µM] | IC50 [2] [µM] | IC50 [3] [µM] | SMILES |
| --- | --- | --- | --- |
| > 2 | > 2 | > 2 | CCOc1nc(N)nc(N[C@@H](CCCN)C(=O)Nc2cccc(C(F)(F)F)c2)c1C#N [Example 129, N^2-[2-amino-5-cyano-6-(ethyloxy)pyrimidin-4-yl]-N-[3-(trifluoromethyl)phenyl]-L-ornithinamide] |
| < 0.05 | > 2 | > 2 | CSc1nc(N)nc(SCC(=O)Nc2nccs2)c1C#N [Example 27, 2-{[2-amino-5-cyano-6-(methylthio)pyrimidin-4-yl]thio}-N-1,3-thiazol-2-ylacetamide] |
| < 0.05 | > 2 | > 2 | CSc1nc(N)nc(N(C)[C@@H](C)C(=O)Nc2cc(OC(F)(F)F)ccc2OCCN(C)C)c1C#N [Example 134, N~2~-[2-amino-5-cyano-6-(methylthio)pyrimidin-4-yl]-N-{2-{[2-(dimethylamino)ethyl]oxy}-5-[(trifluoromethyl)oxy]phenyl}-N~2~-methyl-L-alaninamide] |
| < 0.05 | > 2 | > 2 | CSc1nc(N)nc(N(C)[C@@H](C)C(=O)Nc2cccc(OC(F)(F)F)c2)c1C#N [Example 132, N~2~-[2-amino-5-cyano-6-(methylthio)pyrimidin-4-yl]-N~2~-methyl-N-{3-[(trifluoromethyl)oxy]phenyl}-L-alaninamide] |
| < 0.05 | > 2 | > 2 | CSc1nc(N)nc(SC2CCN(c3cccc(C(F)(F)F)c3)C2=O)c1C#N (stereo not drawn) [Example 35, 2-amino-4-(methylthio)-6-({2-oxo-1-[3-(trifluoromethyl)phenyl]pyrrolidin-3-yl}thio)pyrimidine-5-carbonitrile] |
| < 0.05 | > 2 | > 2 | CCc1nnc(NC(=O)CSc2nc(N)nc(SC)c2C#N)s1 [Example 24, 2-{[2-amino-5-cyano-6-(methylthio)pyrimidin-4-yl]thio}-N-(5-ethyl-1,3,4-thiadiazol-2-yl)acetamide] |
| < 0.05 | > 2 | > 2 | CNc1cc(COC(=O)Nc2cccc(C(F)(F)F)c2)nc(SC)n1 [Example 39, [6-(methylamino)-2-(methylthio)pyrimidin-4-yl]methyl [3-(trifluoromethyl)phenyl]carbamate] |
| < 0.05 | > 2 | > 2 | CSc1nc(N)nc(SCC(=O)n2nc(C)cc2C)c1C#N [Example 26, 2-amino-4-{[2-(3,5-dimethyl-1H-pyrazol-1-yl)-2-oxoethyl]thio}-6-(methylthio)pyrimidine-5-carbonitrile] |
| < 0.05 | > 2 | > 2 | CCCCOc1cccc(NC(=O)CSc2nc(N)nc(SC)c2C#N)c1 [Example 22, 2-{[2-amino-5-cyano-6-(methylthio)pyrimidin-4-yl]thio}-N-[3-(butyloxy)phenyl]acetamide] |
| 0.05 to 0.5 | > 2 | > 2 | COc1nc(N)nc(NNC(=O)Nc2cccc(C(F)(F)F)c2)c1C#N [Example 140, 2-[2-amino-5-cyano-6-(methyloxy)pyrimidin-4-yl]-N-[3-(trifluoromethyl)phenyl]hydrazinecarboxamide] |
| 0.05 to 0.5 | > 2 | > 2 | CSc1nc(N)nc(N[C@@H](CN(C)C)C(=O)Nc2cccc(C(F)(F)F)c2)c1C#N [Example 142, N~2~-[2-amino-5-cyano-6-(methylthio)pyrimidin-4-yl]-3-(dimethylamino)-N-[3-(trifluoromethyl)phenyl]-L-alaninamide] |
| < 0.05 | > 2 | > 2 | Nc1cc(SCC(=O)Nc2cccc(C(F)(F)F)c2)nc(N)n1 [Example 33, 2-[(2,6-diaminopyrimidin-4-yl)thio]-N-[3-(trifluoromethyl)phenyl]acetamide] |
| < 0.05 | > 2 | > 2 | CSc1nc(N)nc(N(C)[C@@H](C)C(=O)Nc2cccc(Br)c2)c1C#N [Example 133, N~2~-[2-amino-5cyano-6-(methylthio)pyrimidin-4-yl]-N-(3-bromophenyl)-N~2~-methyl-L-alaninamide] |
| < 0.05 | > 2 | > 2 | CSc1nc(N)nc(SCC(=O)Nc2cccc(C(F)(F)F)n2)c1C#N [Example 36, 2-{[2-amino-5-cyano-6-(methylthio)pyrimidin-4-yl]thio}-N-[6-(trifluoromethyl)pyridin-2-yl]acetamide] |
| < 0.05 | > 2 | > 2 | CSc1nc(N)nc(SCC(=O)Nc2cccc(C(F)(F)F)c2)c1C#N [Example 21, 2-{[2-amino-5-cyano-6-(methylthio)pyrimidin-4-yl]thio}-N-[3-(trifluoromethyl)phenyl]acetamide] |
| 0.05 to 0.5 | > 2 | > 2 | CSc1nc(N)nc(SCC(=O)c2ccc3c(c2)NC(=O)CO3)c1C#N [Example 49, 2-amino-4-(methylthio)-6-{[2-oxo-2-(3-oxo-3,4-dihydro-2H-1,4-benzoxazin-6-yl)ethyl]thio}pyrimidine-5-carbonitrile] |
| < 0.05 | > 2 | > 2 | CSc1nc(N)nc(SCC(=O)Nc2ccccn2)c1C#N [Example 29, 2-{[2-amino-5-cyano-6-(methylthio)pyrimidin-4-yl]thio}-N-pyridin-2-ylacetamide] |
| < 0.05 | > 2 | > 2 | CSc1nc(N)nc(N[C@@H](C)C(=O)Nc2cc(OCCN(C)C)cc(C(F)(F)F)c2)c1C#N [Example 137, N~2~-[2-amino-5-cyano-6-(methylthio)pyrimidin-4-yl]-N-[3-{[2-(dimethylamino)ethyl]oxy}-5-(trifluoromethyl)phenyl]-L-alaninamide] |
| < 0.05 | > 2 | > 2 | CSc1nc(N)nc(SCC(=O)Nc2cc(C(F)(F)F)ccn2)c1C#N [Example 37, 2-{[2-amino-5-cyano-6-(methylthio)pyrimidin-4-yl]thio}-N-[4-(trifluoromethyl)pyridin-2-yl]acetamide] |
| 0.05 to 0.5 | > 2 | > 2 | CSc1nc(N)nc(SCC(=O)N(C)c2cccc(C(F)(F)F)c2)c1C#N [Example 16, 2-{(2-amino-5-cyano-6-(methylthio)pyrimidin-4-yl]thio}-N-methyl-N-[3-(trifluoromethyl)phenyl]acetamide] |
| < 0.05 | > 2 | > 2 | CSc1nc(N)nc(SCC(=O)Nc2nc(C)cs2)c1C#N [Example 25, 2-{[2-amino-5-cyano-6-(methylthio)pyrimidin-4-yl]thio}-N-(4-methyl-1,3-thiazol-2-yl)acetamide] |
| < 0.05 | > 2 | > 2 | CSc1cc(COC(=O)Nc2cccc(C(F)(F)F)c2)nc(NCc2ccccc2)n1 [Example 38, {6-(methylthio)-2-[(phenylmethyl)amino]pyrimidin-4-yl}methyl [3-(trifluoromethyl)phenyl]carbamate] |
